Like-named read-outs stand apart in the source and are kept apart here.
Assays:
[1] = target: Beta Secretase enzyme (BACE1) (Homo sapiens, UniProt P56817); experiment: In vitro enzymatic BACE FRET assay; type: biochemical; details: read-out: BACE1 FRET assay IC50
Procedure, shortened: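 BACE1 cleavage of a 50 nM fluorophore/quencher peptide FRET substrate ran for one hour in 0.05 M acetate pH 4.2, 10% DMSO, 100 uM genapol. Tris buffer raised pH to neutrality to stop the reaction before fluorescence was read (excitation 488 nm, […]).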

[2] = test system: Aβ40 in conditioned medium of cells stably expressing Amyloid Precursor Protein (APP); experiment: In vitro BACE cell-based assay (HEK cell assay), Aβ40 sandwich ELISA; details: Homo sapiens, HEK293
Procedure, shortened: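 APP-stably expressing cells (40K/well, grown 24 h in DMEM/10% FBS) were treated 24 h with compounds in 10-point dose response starting at 100 μM or 10 μM, 0.1% DMSO final. Secreted Aβ40 was measured by sandwich ELISA (pAb40 capture, biotinylated 6E10 detection, europium time-resolved fluorescence); IC50 from percent inhibition.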

Cathepsin D (Cat D) = target: T1, Cathepsin D (Cat D) (Homo sapiens, UniProt P07339); experiment: In vitro enzymatic Cathepsin D (Cat D) FRET assay; type: biochemical; details: read-out: CatD IC50
T1 construct: Recombinant Cat D was expressed in CHO cells; made in house; host or cells: CHO cells
T1 sequence (P07339 65-412, species assumed): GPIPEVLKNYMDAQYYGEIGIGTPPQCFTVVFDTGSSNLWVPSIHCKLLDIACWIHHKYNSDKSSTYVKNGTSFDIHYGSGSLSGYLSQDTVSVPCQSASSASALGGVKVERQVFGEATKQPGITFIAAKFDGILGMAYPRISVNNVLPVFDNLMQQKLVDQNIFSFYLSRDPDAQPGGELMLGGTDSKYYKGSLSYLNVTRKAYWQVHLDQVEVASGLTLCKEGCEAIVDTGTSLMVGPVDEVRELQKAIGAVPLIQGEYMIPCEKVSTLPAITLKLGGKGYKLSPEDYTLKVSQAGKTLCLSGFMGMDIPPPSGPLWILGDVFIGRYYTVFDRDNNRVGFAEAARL
Procedure, shortened: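 Recombinant Cat D expressed in CHO cells, used at 9 nM and pre-incubated one hour with serially diluted inhibitor in DMSO. Peptide substrate carries a fluorophore and quencher flanking the cleavage site; reaction stopped with Tris buffer raising pH to neutrality, then fluorescence read.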

Chain of Beta Secretase enzyme (BACE1) (P56817 46-501): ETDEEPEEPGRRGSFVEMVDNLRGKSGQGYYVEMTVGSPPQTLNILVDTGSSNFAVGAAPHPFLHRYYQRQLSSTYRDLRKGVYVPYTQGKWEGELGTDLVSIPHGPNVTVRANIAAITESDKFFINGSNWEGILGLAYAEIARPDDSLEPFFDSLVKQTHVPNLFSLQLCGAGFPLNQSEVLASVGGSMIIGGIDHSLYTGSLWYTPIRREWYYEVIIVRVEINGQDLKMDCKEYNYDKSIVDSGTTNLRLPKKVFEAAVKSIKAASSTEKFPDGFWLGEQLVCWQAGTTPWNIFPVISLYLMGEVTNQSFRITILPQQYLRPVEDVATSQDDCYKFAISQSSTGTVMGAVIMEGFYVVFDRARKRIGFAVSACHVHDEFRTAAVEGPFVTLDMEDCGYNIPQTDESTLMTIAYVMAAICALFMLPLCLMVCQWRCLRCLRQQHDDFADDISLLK

Row | Structure (SMILES) | IC50 [1] [µM] | IC50 [2] [µM] | IC50 (Cathepsin D (Cat D)) [µM] | IC50 ([1]; average IC50, enzyme assay) [µM] | IC50 ([2]; average IC50, HEK cell assay) [µM] | IC50 ([2]; average IC50, cell assay) [µM]
1 | C[C@]1(c2cc(NC(=O)c3ccc(Cl)cn3)ccc2F)N=C(N)C2(CCC2)S(=O)(=O)[C@@H]1F [Example 131, N-(3-((6S,7R)-9-amino-6-fluoro-7-methyl-5,5-dioxido-5-thia-8-azaspiro[3.5]non-8-en-7-yl)-4-fluorophenyl)-5-chloropicolinamide] | 0.0016 | 0.00901 | 162 |  |  | 
2 | Cc1cc(OC(F)F)cnc1C(=O)Nc1ccc(F)c([C@@]2(C)N=C(N)C3(CCC3)S(=O)(=O)[C@@H]2F)c1 [Example 132, N-(3-((6S,7R)-9-amino-6-fluoro-7-methyl-5,5-dioxido-5-thia-8-azaspiro[3.5]non-8-en-7-yl)-4-fluorophenyl)-5-(difluoromethoxy)-3-methylpicolinamide] | 0.00297 | 0.0058 | 61.8 |  |  | 
3 | Cc1cc(C(F)F)cnc1C(=O)Nc1ccc(F)c([C@@]2(C)N=C(N)C3(CCC3)S(=O)(=O)[C@@H]2F)c1 [Example 136, N-(3-((6S,7R)-9-amino-6-fluoro-7-methyl-5,5-dioxido-5-thia-8-azaspiro[3.5]non-8-en-7-yl)-4-fluorophenyl)-5-(difluoromethyl)-3-methylpicolinamide] | 0.0021 | 0.0049 | 236 |  |  | 
4 | COc1cnc(C(=O)Nc2ccc(F)c([C@@]3(C)N=C(N)C4(CCC4)S(=O)(=O)[C@@H]3F)c2)c(C)c1 [Example 137, N-(3-((6S,7R)-9-amino-6-fluoro-7-methyl-5,5-dioxido-5-thia-8-azaspiro[3.5]non-8-en-7-yl)-4-fluorophenyl)-5-methoxy-3-methylpicolinamide] | 0.00363 | 0.0064 | 81.3 |  |  | 
5 | COc1cc(Cl)cnc1C(=O)Nc1ccc(F)c([C@@]2(C)N=C(N)C3(CCC3)S(=O)(=O)[C@@H]2F)c1 [Example 139, N-(3-((6S,7R)-9-amino-6-fluoro-7-methyl-5,5-dioxido-5-thia-8-azaspiro[3.5]non-8-en-7-yl)-4-fluorophenyl)-5-chloro-3-methoxypicolinamide] | 0.0038 | 0.0118 | 408 |  |  | 
6 | C[C@]1(c2cc(NC(=O)c3cnc(C(F)F)cn3)ccc2F)N=C(N)C2(CCC2)S(=O)(=O)[C@@H]1F [Example 140, N-(3-((6S,7R)-9-amino-6-fluoro-7-methyl-5,5-dioxido-5-thia-8-azaspiro[3.5]non-8-en-7-yl)-4-fluorophenyl)-5-(difluoromethyl)pyrazine-2-carboxamide] | 0.0088 | 0.0146 | > 400 |  |  | 
7 | Cc1cc(OC(F)F)cnc1C(=O)Nc1ccc(F)c([C@]2(C)CS(=O)(=O)C(C)(C)C(N)=N2)c1 [Example 144, (R)—N-(3-(5-amino-3,6,6-trimethyl-1,1-dioxido-3,6-dihydro-2H-1,4-thiazin-3-yl)-4-fluorophenyl)-5-(difluoromethoxy)-3-methylpicolinamide] | 0.0006 | 0.0016 | 96.7 |  |  | 
8 | Cc1c(CNc2cc([C@]3(C)CS(=O)(=O)C(C)(C)C(N)=N3)c(F)cn2)nc2ccc(Cl)cn12 [Example 145, (R)-5-amino-3-(2-(((6-chloro-3-methylimidazo[1,2-a]pyridin-2-yl)methyl)amino)-5-fluoropyridin-4-yl)-3,6,6-trimethyl-3,6-dihydro-2H-1,4-thiazine-1,1-dioxide] |  |  | 102 | 0.44 | 0.412 | 
9 | C[C@@]1(c2cc(Br)ncc2F)CS(=O)(=O)C2(CCC2)C(N)=N1 [Example 147, (R)-9-amino-7-(2-bromo-5-fluoropyridin-4-yl)-7-methyl-5-thia-8-azaspiro[3.5]non-8-ene 5,5-dioxide] |  |  | 43.5 | 17 |  | > 15.6
10 | Cc1cc(OC(F)F)cnc1C(=O)Nc1ccc(F)c([C@]2(CF)CS(=O)(=O)C(C)(C)C(N)=N2)c1 [Example 148, (S)—N-(3-(5-amino-3-(fluoromethyl)-6,6-dimethyl-1,1-dioxido-3,6-dihydro-2H-1,4-thiazin-3-yl)-4-fluorophenyl)-5-(difluoromethoxy)-3-methylpicolinamide] | 0.00163 | 0.0091 | 213 |  |  | 
11 | Cc1cc(OCCF)cnc1C(=O)Nc1ccc(F)c([C@]2(CF)CS(=O)(=O)C(C)(C)C(N)=N2)c1 [Example 149, (S)—N-(3-(5-amino-3-(fluoromethyl)-6,6-dimethyl-1,1-dioxido-3,6-dihydro-2H-1,4-thiazin-3-yl)-4-fluorophenyl)-5-(2-fluoroethoxy)-3-methylpicolinamide] |  |  | 855 | 0.00271 |  | 0.0651
12 | Cc1cc(OC2COC2)cnc1C(=O)Nc1ccc(F)c([C@]2(CF)CS(=O)(=O)C(C)(C)C(N)=N2)c1 [Example 150, (S)—N-(3-(5-amino-3-(fluoromethyl)-6,6-dimethyl-1,1-dioxido-3,6-dihydro-2H-1,4-thiazin-3-yl)-4-fluorophenyl)-3-methyl-5-(oxetan-3-yloxy)picolinamide] |  |  | 622 | 0.0445 |  | 0.528
13 | Cc1cc(OCC2CCC2)cnc1C(=O)Nc1ccc(F)c([C@]2(CF)CS(=O)(=O)C(C)(C)C(N)=N2)c1 [Example 151, (S)—N-(3-(5-amino-3-(fluoromethyl)-6,6-dimethyl-1,1-dioxido-3,6-dihydro-2H-1,4-thiazin-3-yl)-4-fluorophenyl)-5-(cyclobutylmethoxy)-3-methylpicolinamide] | 0.0017 | 0.1 | 232 |  |  | 
14 | Cc1c(CNc2ccc(F)c([C@]3(C)CS(=O)(=O)C(C)(C)C(N)=N3)c2)nc2ccc(Cl)cn12 [Example 152, (R)-5-amino-3-(5-(((6-chloro-3-methylimidazo[1,2-a]pyridin-2-yl)methyl)amino)-2-fluorophenyl)-3,6,6-trimethyl-3,6-dihydro-2H-1,4-thiazine 1,1-dioxide] |  |  | 1460 | 2.94 |  | 0.302
15 | CC1(C)C(N)=N[C@](C)(c2cc(C(=O)Nc3ccc(Cl)cc3)ccc2F)CS1(=O)=O [Example 153, (R)-3-(5-amino-3,6,6-trimethyl-1,1-dioxido-3,6-dihydro-2H-1,4-thiazin-3-yl)-N-(4-chlorophenyl)-4-fluorobenzamide] |  |  | 237 | 4.68 |  | 3.21
16 | C[C@@]1(c2cccc(Br)c2)CS(=O)(=O)C2(CCC2)C(N)=N1 [Example 154, (R)-9-amino-7-(3-bromophenyl)-7-methyl-5-thia-8-azaspiro[3.5]non-8-ene 5,5-dioxide] |  |  | 31.2 | 6.06 |  | 2.39
17 | COc1cnc(C(=O)Nc2ccc(F)c([C@]3(CF)CS(=O)(=O)C(C)(C)C(N)=N3)c2)c(OC)n1 [Example 155, (S)—N-(3-(5-amino-3-(fluoromethyl)-6,6-dimethyl-1,1-dioxido-3,6-dihydro-2H-1,4-thiazin-3-yl)-4-fluorophenyl)-3,5-dimethoxypyrazine-2-carboxamide] |  |  | 470 | 0.0043 |  | 0.0351
18 | CC1(C)C(N)=N[C@](CF)(c2cc(NC(=O)c3cnc(OCC4CC4)cn3)ccc2F)CS1(=O)=O [Example 156, (S)—N-(3-(5-amino-3-(fluoromethyl)-6,6-dimethyl-1,1-dioxido-3,6-dihydro-2H-1,4-thiazin-3-yl)-4-fluorophenyl)-5-(cyclopropylmethoxy)pyrazine-2-carboxamide] |  |  | 835 | 0.0005 |  | 0.0049
19 | CC1(C)C(N)=N[C@](CF)(c2cc(Nc3ncc(F)c4cc(C#N)cnc34)ccc2F)CS1(=O)=O [Example 157, (S)-8-((3-(5-amino-3-(fluoromethyl)-6,6-dimethyl-1,1-dioxido-3,6-dihydro-2H-1,4-thiazin-3-yl)-4-fluorophenyl)amino)-5-fluoro-1,7-naphthyridine-3-carbonitrile] |  |  | > 14.8 | 0.00056 |  | 0.0271
20 | Cc1c(C(=O)Nc2ccc(F)c([C@]3(CF)CS(=O)(=O)C(C)(C)C(N)=N3)c2)nc2ccc(Cl)cn12 [Example 158, (S)—N-(3-(5-amino-3-(fluoromethyl)-6,6-dimethyl-1,1-dioxido-3,6-dihydro-2H-1,4-thiazin-3-yl)-4-fluorophenyl)-6-chloro-3-methylimidazo[1,2-a]pyridine-2-carboxamide] |  |  | 4060 | 0.00303 |  | 0.0106
21 | COc1cnc2c(Nc3ccc(F)c([C@]4(CF)CS(=O)(=O)C(C)(C)C(N)=N4)c3)ncc(F)c2c1 [Example 159, (S)-5-amino-3-(2-fluoro-5-((5-fluoro-3-methoxy-1,7-naphthyridin-8-yl)amino)phenyl)-3-(fluoromethyl)-6,6-dimethyl-3,6-dihydro-2H-1,4-thiazine 1,1-dioxide] |  |  | 159 | 0.00055 |  | 0.0285
22 | CC1(C)C(N)=N[C@](C)(c2cc(NC(=O)N3CC=CCC3)ccc2F)CS1(=O)=O [Example 160, (R)—N-(3-(5-amino-3,6,6-trimethyl-1,1-dioxido-3,6-dihydro-2H-1,4-thiazin-3-yl)-4-fluorophenyl)-5,6-dihydropyridine-1(2H)-carboxamide] |  |  | > 14.8 | 0.575 |  | 0.681

Source: patent US20140107109A1, “AMINO-DIHYDROTHIAZINE AND AMINO-DIOXIDO DIHYDROTHIAZINE COMPOUNDS AS BETA-SECRETASE ANTAGONISTS AND METHODS OF USE” (Amgen Inc., priority 2012, published 2014)
